# Molecular target: T1, RIPK1 (Homo sapiens, UniProt Q13546)
# T1 construct: purchased DiscoverX
# T1 sequence (Q13546 1-671): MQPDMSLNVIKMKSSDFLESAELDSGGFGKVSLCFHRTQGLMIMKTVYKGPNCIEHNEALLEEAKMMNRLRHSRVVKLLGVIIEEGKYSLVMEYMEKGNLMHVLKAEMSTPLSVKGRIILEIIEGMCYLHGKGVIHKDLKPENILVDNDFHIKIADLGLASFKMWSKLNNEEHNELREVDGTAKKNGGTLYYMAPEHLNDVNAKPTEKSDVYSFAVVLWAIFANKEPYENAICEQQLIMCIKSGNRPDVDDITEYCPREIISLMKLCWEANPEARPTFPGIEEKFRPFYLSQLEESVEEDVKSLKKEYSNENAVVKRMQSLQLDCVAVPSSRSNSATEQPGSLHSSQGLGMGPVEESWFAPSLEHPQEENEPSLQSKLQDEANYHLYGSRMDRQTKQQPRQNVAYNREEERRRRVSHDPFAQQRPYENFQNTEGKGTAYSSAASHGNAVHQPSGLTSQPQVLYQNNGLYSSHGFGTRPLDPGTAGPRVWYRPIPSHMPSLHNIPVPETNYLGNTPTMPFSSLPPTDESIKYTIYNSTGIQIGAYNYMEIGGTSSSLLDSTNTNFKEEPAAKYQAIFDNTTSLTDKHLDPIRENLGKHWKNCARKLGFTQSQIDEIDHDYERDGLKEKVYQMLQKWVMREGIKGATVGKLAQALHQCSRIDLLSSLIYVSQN
# Experiment: RIPK1 inhibitory activity, DiscoverX scanMAX kinase panel (% control)
# Type: binding
# Settings: drug concentration 1 μM in DMSO, <35% counted as active, read-out: control percentage (% control) RIPK1
# Method: To evaluate the RIPK1 inhibitory activity of a compound according to the present invention, the following experiment was performed. Specifically, for Examples 3 and 30 selected from the compounds of Examples of the present invention, enzyme (kinase) selectivity was measured by DiscoverX, and the experiment was conducted using a panel for scanMAX™ kinase analysis. Here, the enzyme was treated with a drug having a concentration of 1 μM in DMSO, and a control percentage (% control) was determined in the same manner as Formula 1 below.
# Here, the positive control refers to a compound showing a control percentage of 0%, and the negative control is DMSO showing a control percentage of 100%. In addition, in terms of the enzyme selectivity of the present invention, when the control percentage with respect to an enzyme is <35% (i.e., less than 35%), it was determined that the compound has activity against the corresponding enzyme.
row,SMILES,remaining binding at 1 µM [%]
1,"COc1ncc(-c2ccc3nc(N)nn3c2)cc1NC(=O)N1OCC[C@H]1c1ccccc1 [Example 30, (S)-N-(5-(2-amino-[1,2,4]triazolo[1,5-a]pyridin-6-yl)-2-methoxypyridin-3-yl)-3-phenylisoxazolidine-2-carboxamide]",0
2,"COc1ncc(-c2ccc3nc(NC(C)=O)cn3n2)cc1NC(=O)N1OCC[C@H]1c1ccccc1 [Example 3, (S)-N-(5-(2-acetamidoimidazo[1,2-b]pyridazin-6-yl)-2-methoxypyridin-3-yl)-3-phenylisoxazolidine-2-carboxamide]",1

# Test system: HT-29 cells
# Experiment: Cell necrosis inhibitory activity under necroptosis-inducing conditions (TNF-α, Z-VAD-FMK, LCL161) in HT-29 cells, Cell Titer-Glo
# Type: cell-based
# Settings: Homo sapiens, 100 ng/mL TNF-α + 25 μM Z-VAD-FMK + Smac mimetic LCL161, 24 hours, cell viability
# In short: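 HT-29 cells seeded 24 h, then necroptosis induced with 100 ng/mL TNF-α, 25 μM Z-VAD-FMK and 10 μM LCL161 for 10 min before compound (11 points, 3-fold, top 0.1 or 1 μM; 0.05% DMSO). After 24 h, viability by CellTiter-Glo luminescence relative to untreated controls gave EC50 (nM).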
row,SMILES,EC50 [nM]
1,"COc1ncc(-c2ccc3nc(N)nn3c2)cc1NC(=O)N1OCC[C@H]1c1ccccc1 [Example 30, (S)-N-(5-(2-amino-[1,2,4]triazolo[1,5-a]pyridin-6-yl)-2-methoxypyridin-3-yl)-3-phenylisoxazolidine-2-carboxamide]",3.8
2,"Cc1ncc(-c2ccc3nc(N)nn3c2)cc1NC(=O)N1OCC[C@H]1c1cccc(C#N)c1 [Example 46, (S)-N-(5-(2-amino-[1,2,4]triazolo[1,5-a]pyridin-6-yl)-2-methylpyridin-3-yl)-3-(3-cyanophenyl)isoxazolidine-2-carboxamide]",19.4
3,"COc1ncc(-c2ccc3nc(NC(C)=O)cn3n2)cc1NC(=O)N1OCC[C@H]1c1ccccc1 [Example 3, (S)-N-(5-(2-acetamidoimidazo[1,2-b]pyridazin-6-yl)-2-methoxypyridin-3-yl)-3-phenylisoxazolidine-2-carboxamide]",0.6
4,"CNC(=O)c1n[nH]c2cc(-c3ccc(OC)c(NC(=O)N4OCC[C@H]4c4ccccc4)c3)ccc12 [Example 24, (S)-N-(2-methoxy-5-(3-(methylcarbamoyl)-1H-indazol-6-yl)phenyl)-3-phenylisoxazolidine-2-carboxamide]",0.4
5,"Cc1ncc(-c2ccc3nc(NC(=O)C4CC4)sc3c2)cc1NC(=O)N1OCC[C@H]1c1ccccc1 [Example 29, (S)-N-(5-(2-(cyclopropanecarboxamido)benzo[d]thiazol-6-yl)-2-methylpyridin-3-yl)-3-phenylisoxazolidine-2-carboxamide]",0.1
6,"Cc1ccc(-c2ccc3ncc(C#CC(C)(C)O)n3n2)cc1NC(=O)N1OCC[C@H]1c1ccccc1 [Example 117, (S)-N-(5-(3-(3-hydroxy-3-methylbut-1-yn-1-yl)imidazo[1,2-b]pyridazin-6-yl)-2-methylphenyl)-3-phenylisoxazolidine-2-carboxamide]",2.4
7,"Cc1ncc(-c2ccc3nc(NC(=O)C4CC4)cn3n2)cc1NC(=O)N1OCC[C@H]1c1ccccc1 [Example 10, (S)-N-(5-(2-(cyclopropanecarboxamido)imidazo[1,2-b]pyridazin-6-yl)-2-methylpyridin-3-yl)-3-phenylisoxazolidine-2-carboxamide]",0.3
8,"Cc1ccc(-c2ccc3nc(NC(=O)C4CC4)sc3n2)cc1NC(=O)N1OCC[C@H]1c1ccc(C#N)cc1 [Example 94, (S)-3-(4-cyanophenyl)-N-(5-(2-(cyclopropanecarboxamido)thiazolo[5,4-b]pyridin-5-yl)-2-methylphenyl)isoxazolidine-2-carboxamide]",0.3
9,"Cc1ncc(-c2ccc3nc(N)nn3c2)cc1NC(=O)N1OCC[C@H]1c1cc(F)cc(C(F)(F)F)c1 [Example 43, (S)-N-(5-(2-amino-[1,2,4]triazolo[1,5-a]pyridin-6-yl)-2-methylpyridin-3-yl)-3-(3-fluoro-5-(trifluoromethyl)phenyl)isoxazolidine-2-carboxamide]",7.3
10,"Cc1ncc(-c2ccc3nc(N)nn3c2)cc1NC(=O)N1OCC[C@H]1c1cccc(F)c1 [Example 37, (S)-N-(5-(2-amino-[1,2,4]triazolo[1,5-a]pyridin-6-yl)-2-methylpyridin-3-yl)-3-(3-fluorophenyl)isoxazolidine-2-carboxamide]",1.1
11,"Cc1ncc(-c2ccc3nc(N)nn3c2)cc1NC(=O)N1OCC[C@H]1c1ccccc1 [Example 33, (S)-N-(5-(2-amino-[1,2,4]triazolo[1,5-a]pyridin-6-yl)-2-methylpyridin-3-yl)-3-phenylisoxazolidine-2-carboxamide]",1.2
12,"COc1ccc(-c2ccc3nc(NC(C)=O)cn3n2)cc1NC(=O)N1OCC[C@H]1c1ccccc1 [Example 8, (S)-N-(5-(2-acetamidoimidazo[1,2-b]pyridazin-6-yl)-2-methoxyphenyl)-3-phenylisoxazolidine-2-carboxamide]",0.4
13,"Nc1nc2ccc(-c3ccc(F)c(NC(=O)N4OCC[C@H]4c4ccccc4)c3F)cc2s1 [Example 132, (S)-N-(3-(2-aminobenzo[d]thiazol-6-yl)-2,6-difluorophenyl)-3-phenylisoxazolidine-2-carboxamide]",8.1
14,"Cc1ccc(-c2ccc3ncc(C#CC(C)(C)O)n3c2)cc1NC(=O)N1OCC[C@H]1c1ccccc1 [Example 115, (S)-N-(5-(3-(3-hydroxy-3-methylbut-1-yn-1-yl)imidazo[1,2-a]pyridin-6-yl)-2-methylphenyl)-3-phenylisoxazolidine-2-carboxamide]",1.7
15,"Cc1ccc(-c2ccn3nc(N)nc3c2)cc1NC(=O)N1OCC[C@H]1c1ccccc1 [Example 61, (S)-N-(5-(2-amino-[1,2,4]triazolo[1,5-a]pyridin-7-yl)-2-methylphenyl)-3-phenylisoxazolidine-2-carboxamide]",0.2

# Source: patent US20250019373A1, “ARYL OR HETEROARYL DERIVATIVE, AND PHARMACEUTICAL COMPOSITION COMPRISING SAME AS ACTIVE INGREDIENT FOR PREVENTION OR TREATMENT OF KINASE-RELATED DISEASES” (VORONOI INC., priority 2021, published 2025)
